Measured values taken from patent US12116343B2, “Inhibitors of APOL1 and methods of using same” (Vertex Pharmaceuticals Incorporated, priority 2020, dated 2024).

target: T1, G1 APOL1 (Homo sapiens, UniProt O14791, I384M/S342G); test: Acute APOL1 Thallium Assay with inducible stable clones of HEK 293 cells; assay type: cell-based; conditions: HEK 293 T-Rex cells expressing G1 APOL1; read-out: Thallium Assay (IC50)
T1 construct: expressed in transfected cells
T1 sequence (O14791 28-398 S342G/I384M): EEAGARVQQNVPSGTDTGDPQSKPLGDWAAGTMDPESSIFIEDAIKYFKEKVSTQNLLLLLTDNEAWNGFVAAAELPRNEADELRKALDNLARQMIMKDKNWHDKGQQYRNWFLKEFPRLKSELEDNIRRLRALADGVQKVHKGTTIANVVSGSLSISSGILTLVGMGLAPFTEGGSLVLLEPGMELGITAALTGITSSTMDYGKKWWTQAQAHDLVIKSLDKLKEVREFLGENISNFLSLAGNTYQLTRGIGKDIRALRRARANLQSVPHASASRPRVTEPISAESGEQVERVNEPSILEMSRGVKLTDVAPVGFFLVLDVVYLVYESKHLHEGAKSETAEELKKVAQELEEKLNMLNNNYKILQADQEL
How it was run: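 Tetracycline-inducible HEK293 T-Rex clone G1 DC3.25 expressing G1 APOL1, plated at 26000 cells/well in Opti-MEM with tetracycline induction. APOL1 pore activity read on FLIPR as fluorescence increase from Tl+ influx into cells loaded with a Tl+-sensitive AM-ester dye.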

| IC50 [nM] | SMILES |
| --- | --- |
| > 1000 | CCC1(O)CN(C(=O)[C@H]2C[C@H](c3c(-c4ccc(F)cc4)[nH]c4c(F)cc(F)cc43)C2)C1 [Compound 112] |
| > 1000 | O=C([C@H]1C[C@H](c2c(-c3ccc(F)cc3)[nH]c3c(F)cc(F)cc32)C1)N1CC2(CC(O)C2)C1 [Compound 137] |
| > 1000 | O=C([C@H]1C[C@H](c2c(-c3ccc(F)cc3)[nH]c3c(F)cc(F)cc32)C1)N1CC(n2cccn2)C1 [Compound 96] |
| > 1000 | O=C([C@H]1C[C@H](c2c(-c3ccc(F)cc3)[nH]c3c(F)cc(F)cc32)C1)N1CCC(CCO)CC1 [Compound 134] |
| 250 to 1000 | O=C(NC1CC(O)C1)[C@H]1C[C@H](c2c(-c3ccc(F)cc3)[nH]c3c(F)cc(F)cc32)C1 (stereo partly drawn) [Compound 5] |
| 250 to 1000 | CCN(CCO)C(=O)[C@H]1C[C@H](c2c(-c3ccc(F)cc3)[nH]c3c(F)cc(F)cc32)C1 [Compound 124] |
| 250 to 1000 | CC(O)CNC(=O)[C@H]1C[C@H](c2c(-c3ccc(F)cc3)[nH]c3c(F)cc(F)cc32)C1 (stereo partly drawn) [Compound 167] |
| > 1000 | O=C([C@H]1C[C@H](c2c(-c3ccc(F)cc3)[nH]c3c(F)cc(F)cc32)C1)N1CC[C@H](CO)C1 [Compound 140] |
| 250 to 1000 | NC(=O)[C@H]1C[C@H](c2c(-c3ccc(F)cc3)[nH]c3c(F)cc(F)cc32)C1 [Compound 169] |
| 250 to 1000 | O=C1CC[C@H](NC(=O)[C@H]2C[C@H](c3c(-c4ccc(F)cc4)[nH]c4c(F)cc(F)cc43)C2)C1 [Compound 139] |
| 250 to 1000 | CC(O)CN(CCO)C(=O)[C@H]1C[C@H](c2c(-c3ccc(F)cc3)[nH]c3c(F)cc(F)cc32)C1 (mixture of isomers) [Compound 129] |
| 250 to 1000 | O=C1NCC[C@@H]1NC(=O)[C@H]1C[C@H](c2c(-c3ccc(F)cc3)[nH]c3c(F)cc(F)cc32)C1 [Compound 162] |
| > 1000 | O=C([C@H]1C[C@H](c2c(-c3ccc(F)cc3)[nH]c3c(F)cc(F)cc32)C1)N1CCCC[C@H]1CO [Compound 146] |
| > 1000 | O=C1CCC(NC(=O)[C@H]2C[C@H](c3c(-c4ccc(F)cc4)[nH]c4c(F)cc(F)cc43)C2)C1 (stereo partly drawn) [Compound 159] |
| > 1000 | O=C([C@H]1C[C@H](c2c(-c3ccc(F)cc3)[nH]c3c(F)cc(F)cc32)C1)N1CC[C@H](CO)[C@H](O)C1 [Compound 100] |
| > 1000 | O=C([C@H]1C[C@H](c2c(-c3ccc(F)cc3)[nH]c3c(F)cc(F)cc32)C1)N1C[C@H]2C[C@@]2(CO)C1 [Compound 98] |
| > 1000 | CC(C)N(CCO)C(=O)[C@H]1C[C@H](c2c(-c3ccc(F)cc3)[nH]c3c(F)cc(F)cc32)C1 [Compound 123] |
| > 1000 | O=C([C@H]1C[C@H](c2c(-c3ccc(F)cc3)[nH]c3c(F)cc(F)cc32)C1)N1CCN(CCO)CC1 [Compound 126] |
| > 1000 | CCN(C(=O)[C@H]1C[C@H](c2c(-c3ccc(F)cc3)[nH]c3c(F)cc(F)cc32)C1)C(C)CO (mixture of isomers) [Compound 111] |
| > 1000 | O=C([C@H]1C[C@H](c2c(-c3ccc(F)cc3)[nH]c3c(F)cc(F)cc32)C1)N1CC(O)C(CO)C1 (stereo partly drawn) [Compound 138] |

| IC50 [nM] | SMILES |
| --- | --- |
| 250 to 1000 | NC(=O)[C@H](CO)NC(=O)[C@H]1C[C@H](c2c(-c3ccc(F)cc3)[nH]c3c(F)cc(F)cc32)C1 [Compound 144] |
| > 1000 | O=C([C@H]1C[C@H](c2c(-c3ccc(F)cc3)[nH]c3c(F)cc(F)cc32)C1)N1CCCC1CCO (stereo partly drawn) [Compound 101] |
| > 1000 | O=C(O)CNC(=O)[C@H]1C[C@H](c2c(-c3ccc(F)cc3)[nH]c3c(F)cc(F)cc32)C1 [Compound 10] |
| > 1000 | O=C([C@H]1C[C@H](c2c(-c3ccc(F)cc3)[nH]c3c(F)cc(F)cc32)C1)N1CCC(CO)(CO)CC1 [Compound 108] |
| > 1000 | O=C([C@H]1C[C@H](c2c(-c3ccc(F)cc3)[nH]c3c(F)cc(F)cc32)C1)N1CCCC(CO)C1 (stereo partly drawn) [Compound 147] |
| 250 to 1000 | O=C([C@H]1C[C@H](c2c(-c3ccc(F)cc3)[nH]c3c(F)cc(F)cc32)C1)N1CCC[C@@H](O)C1 [Compound 149] |
| > 1000 | CC1(C)CN(C(=O)[C@H]2C[C@H](c3c(-c4ccc(F)cc4)[nH]c4c(F)cc(F)cc43)C2)CCC1O (stereo partly drawn) [Compound 114] |
| > 1000 | C[C@@H](O)[C@H](CO)NC(=O)[C@H]1C[C@H](c2c(-c3ccc(F)cc3)[nH]c3c(F)cc(F)cc32)C1 [Compound 155] |
| > 1000 | CC(O)C1CCCN(C(=O)[C@H]2C[C@H](c3c(-c4ccc(F)cc4)[nH]c4c(F)cc(F)cc43)C2)C1 (stereo partly drawn) [Compound 131] |
| < 250 | O=C(NCCOCCO)[C@H]1C[C@H](c2c(-c3ccc(F)cc3)[nH]c3c(F)cc(F)cc32)C1 [Compound 125] |
| > 1000 | O=C([C@H]1C[C@H](c2c(-c3ccc(F)cc3)[nH]c3c(F)cc(F)cc32)C1)N1CCC[C@H](O)C1 [Compound 105] |
| > 1000 | O=C([C@H]1C[C@H](c2c(-c3ccc(F)cc3)[nH]c3c(F)cc(F)cc32)C1)N1CCCC(O)C1 (stereo partly drawn) [Compound 150] |
| > 1000 | C[C@H]1CN(C(=O)[C@H]2C[C@H](c3c(-c4ccc(F)cc4)[nH]c4c(F)cc(F)cc43)C2)CC[C@@H]1O [Compound 116] |
| > 1000 | O=C([C@H]1C[C@H](c2c(-c3ccc(F)cc3)[nH]c3c(F)cc(F)cc32)C1)N1CCOC(CO)C1 (stereo partly drawn) [Compound 148] |
| > 1000 | O=C([C@H]1C[C@H](c2c(-c3ccc(F)cc3)[nH]c3c(F)cc(F)cc32)C1)N1C2CCC(C2)C1CO (stereo partly drawn) [Compound 97] |
| < 250 | O=C1C[C@@H](NC(=O)[C@H]2C[C@H](c3c(-c4ccc(F)cc4)[nH]c4c(F)cc(F)cc43)C2)C(=O)N1 [Compound 166] |
| < 250 | O=C(NC(CO)CO)[C@H]1C[C@H](c2c(-c3ccc(F)cc3)[nH]c3c(F)cc(F)cc32)C1 [Compound 8] |
| 250 to 1000 | O=C(NCCCO)[C@H]1C[C@H](c2c(-c3ccc(F)cc3)[nH]c3c(F)cc(F)cc32)C1 [Compound 104] |
| 250 to 1000 | O=C([C@H]1C[C@H](c2c(-c3ccc(F)cc3)[nH]c3c(F)cc(F)cc32)C1)N1CCOC(O)C1 (stereo partly drawn) [Compound 115] |
| < 250 | O=C1C[C@H](NC(=O)[C@H]2C[C@H](c3c(-c4ccc(F)cc4)[nH]c4c(F)cc(F)cc43)C2)C(=O)N1 [Compound 165] |

| IC50 [nM] | SMILES |
| --- | --- |
| > 1000 | NC(=O)C1CCN(C(=O)[C@H]2C[C@H](c3c(-c4ccc(F)cc4)[nH]c4c(F)cc(F)cc43)C2)CC1 [Compound 133] |
| 250 to 1000 | CC(C)(NC(=O)[C@H]1C[C@H](c2c(-c3ccc(F)cc3)[nH]c3c(F)cc(F)cc32)C1)C(N)=O [Compound 11] |
| 250 to 1000 | C[C@@H](O)[C@@H](CO)NC(=O)[C@H]1C[C@H](c2c(-c3ccc(F)cc3)[nH]c3c(F)cc(F)cc32)C1 [Compound 160] |
| > 1000 | CC(C)[C@@H](CO)NC(=O)[C@H]1C[C@H](c2c(-c3ccc(F)cc3)[nH]c3c(F)cc(F)cc32)C1 [Compound 141] |
| > 1000 | O=C([C@H]1C[C@H](c2c(-c3ccc(F)cc3)[nH]c3c(F)cc(F)cc32)C1)N1CCCCC1CO (stereo partly drawn) [Compound 145] |
| 250 to 1000 | O=C(NCc1cocn1)[C@H]1C[C@H](c2c(-c3ccc(F)cc3)[nH]c3c(F)cc(F)cc32)C1 [Compound 168] |
| > 1000 | CN(C)C[C@@H]1CCN(C(=O)[C@H]2C[C@H](c3c(-c4ccc(F)cc4)[nH]c4c(F)cc(F)cc43)C2)C[C@H]1O [Compound 110] |
| > 1000 | NC(=O)[C@@H]1CCN(C(=O)[C@H]2C[C@H](c3c(-c4ccc(F)cc4)[nH]c4c(F)cc(F)cc43)C2)C1 [Compound 135] |
| > 1000 | O=C([C@H]1C[C@H](c2c(-c3ccc(F)cc3)[nH]c3c(F)cc(F)cc32)C1)N1CCN[C@H](CO)C1 [Compound 161] |
| > 1000 | O=C(NCC1(O)CCC1)[C@H]1C[C@H](c2c(-c3ccc(F)cc3)[nH]c3c(F)cc(F)cc32)C1 [Compound 143] |
| > 1000 | O=C([C@H]1C[C@H](c2c(-c3ccc(F)cc3)[nH]c3c(F)cc(F)cc32)C1)N1CCCC(CCO)C1 (stereo partly drawn) [Compound 128] |
| > 1000 | CCC(O)(CCCO)CNC(=O)[C@H]1C[C@H](c2c(-c3ccc(F)cc3)[nH]c3c(F)cc(F)cc32)C1 (stereo partly drawn) [Compound 119] |
| > 1000 | O=C1CC[C@@H](NC(=O)[C@H]2C[C@H](c3c(-c4ccc(F)cc4)[nH]c4c(F)cc(F)cc43)C2)C1 [Compound 157] |
| 250 to 1000 | CNC(=O)C(C)NC(=O)[C@H]1C[C@H](c2c(-c3ccc(F)cc3)[nH]c3c(F)cc(F)cc32)C1 (mixture of isomers) [Compound 9] |
| > 1000 | O=C([C@H]1C[C@H](c2c(-c3ccc(F)cc3)[nH]c3c(F)cc(F)cc32)C1)N1CC(OCC2CCCO2)C1 (stereo partly drawn) [Compound 136] |
| 250 to 1000 | C[C@H](CO)N(C)C(=O)[C@H]1C[C@H](c2c(-c3ccc(F)cc3)[nH]c3c(F)cc(F)cc32)C1 [Compound 142] |
| > 1000 | O=C([C@H]1C[C@H](c2c(-c3ccc(F)cc3)[nH]c3c(F)cc(F)cc32)C1)N(CCOCCO)C1CCC1 [Compound 121] |
| > 1000 | O=C([C@H]1C[C@H](c2c(-c3ccc(F)cc3)[nH]c3c(F)cc(F)cc32)C1)N1CCOCC1CCO (stereo partly drawn) [Compound 113] |
| < 250 | O=C(NC1(CO)CCC1)[C@H]1C[C@H](c2c(-c3ccc(F)cc3)[nH]c3c(F)cc(F)cc32)C1 [Compound 6] |
| > 1000 | NC(=O)[C@H]1CCN(C(=O)[C@H]2C[C@H](c3c(-c4ccc(F)cc4)[nH]c4c(F)cc(F)cc43)C2)C1 [Compound 154] |
